From the supplement of paper PMC5908809

Experiments:
[1] = test system: normal NK cells expanded with K562-aAPC; test: drug sensitivity score (DSS) (DSS units); higher = more sensitive; extreme values may be limits of the assay; details: 72 h; IL-2 2.5 ng/mL
Experimental: (§1)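 Drug sensitivity and resistance testing on K562-aAPC-expanded normal NK cells: 5 concentrations (10-fold steps over a 10,000-fold range), 72 h at 37 °C, viability by CellTiter-Glo normalised to DMSO and benzethonium chloride controls; DSS from the fitted curve.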

[2] = test system: normal primary NK cells, pool 1 (3 donors) (IL-2 2.5 ng/mL); test: as above; details: 72 h
NK-YS (IL-2 2.5 ng/mL) [3] = test: as above; details: 72 h
IMC-1 (IL-2 20 ng/mL) [4] = test: as above; details: 72 h
SNK-6 (IL-2 2.5 ng/mL) [5] = test: as above; details: 72 h
KHYG-1 (IL-2 2.5 ng/mL) [6] = test: as above; details: 72 h
[7] = test system: normal primary NK cells, pool 2 (3 donors) (IL-2 2.5 ng/mL); test: as above; details: 72 h
NK-92 (IL-2 2.5 ng/mL) [8] = test: as above; details: 72 h
KAI3 (IL-2 2.5 ng/mL) [9] = test: as above; details: 72 h
[10] = test system: normal primary NK cells, pool 3 (3 donors) (IL-2 2.5 ng/mL); test: as above; details: 72 h
[11] = test system: normal primary NK cells, pool 1 (3 donors), resting (IL-2 0 ng/mL); test: as above; details: 72 h
NKL (IL-2 2.5 ng/mL) [12] = test: as above; details: 72 h
DERL-7 (IL-2 2.5 ng/mL) [13] = test: as above; details: 72 h
YT (IL-2 2.5 ng/mL) [14] = test: as above; details: 72 h
[15] = test system: normal NK cells expanded with K562-aAPC; test: percent inhibition of viability; higher = more inhibition; details: 72 h, IL-2 2.5 ng/mL
Experimental: as §1

[16] = test system: normal primary NK cells, pool 1 (3 donors) (IL-2 2.5 ng/mL); test: as above; details: 72 h
NK-YS (IL-2 2.5 ng/mL) [17] = test: as above; details: 72 h
IMC-1 (IL-2 20 ng/mL) [18] = test: as above; details: 72 h
SNK-6 (IL-2 2.5 ng/mL) [19] = test: as above; details: 72 h
KHYG-1 (IL-2 2.5 ng/mL) [20] = test: as above; details: 72 h
[21] = test system: normal primary NK cells, pool 2 (3 donors) (IL-2 2.5 ng/mL); test: as above; details: 72 h
NK-92 (IL-2 2.5 ng/mL) [22] = test: as above; details: 72 h
KAI3 (IL-2 2.5 ng/mL) [23] = test: as above; details: 72 h
[24] = test system: normal primary NK cells, pool 3 (3 donors) (IL-2 2.5 ng/mL); test: as above; details: 72 h
[25] = test system: normal primary NK cells, pool 1 (3 donors), resting (IL-2 0 ng/mL); test: as above; details: 72 h
NKL (IL-2 2.5 ng/mL) [26] = test: as above; details: 72 h
DERL-7 (IL-2 2.5 ng/mL) [27] = test: as above; details: 72 h
YT (IL-2 2.5 ng/mL) [28] = test: as above; details: 72 h

CNC(=O)c1cc(Oc2ccc(NC(=O)Nc3cc(C(C)(C)C)nn3-c3ccc4ncccc4c3)c(F)c2)ccn1 [Rebastinib] (max concentration tested 1000 nM)
Details	drug sensitivity score
DERL-7 (IL-2 2.5 ng/mL) [13]	0
IMC-1 (IL-2 20 ng/mL) [4]	0
KAI3 (IL-2 2.5 ng/mL) [9]	0
KHYG-1 (IL-2 2.5 ng/mL) [6]	0
NK-92 (IL-2 2.5 ng/mL) [8]	0
NK-YS (IL-2 2.5 ng/mL) [3]	0
NKL (IL-2 2.5 ng/mL) [12]	0
SNK-6 (IL-2 2.5 ng/mL) [5]	0
YT (IL-2 2.5 ng/mL) [14]	0
[1]	0
[2]	0
[7]	0
[10]	0
[11]	0

percent inhibition of viability [%]
Details	0.1 nM	1 nM	10 nM	100 nM	1000 nM
DERL-7 (IL-2 2.5 ng/mL) [27]	-4.96	1.69	-0.5	-4.52	-8.09
IMC-1 (IL-2 20 ng/mL) [18]	0.93	7.15	-1.23	1.86	-6.19
KAI3 (IL-2 2.5 ng/mL) [23]	7.99	9.63	10.5	5.1	-6.78
KHYG-1 (IL-2 2.5 ng/mL) [20]	-2.88	-0.08	0.01	-1.2	-8.03
NK-92 (IL-2 2.5 ng/mL) [22]	-1.88	1.51	-1.48	0.06	-12.8
NK-YS (IL-2 2.5 ng/mL) [17]	-1.58	-3.98	-0.95	1.01	2.92
NKL (IL-2 2.5 ng/mL) [26]	-2.2	-3.91	-1.3	8.69	5.2
SNK-6 (IL-2 2.5 ng/mL) [19]	7.77	13.4	-14.2	1.04	-59.9
YT (IL-2 2.5 ng/mL) [28]	-4.61	-3.15	-0.26	1.61	-0.37
[15]	-1.77	-3.86	-0.78	-3.03	-4.18
[16]	-3.76	-8.51	-9.53	-4.2	-12.7
[21]	-4.03	-4.97	-4.4	-1.73	-9.3
[24]	-9.69	-6.19	-1.5	-11	-8.81
[25]	-11.2	-7.34	-6.2	-15.4	1.95

CC(=O)NCC(=O)N1[C@@H]2CC[C@H]1c1ccc(Nc3ncc(C(F)(F)F)c(NC4CCC4)n3)cc12 (max concentration tested 10000 nM)
Details	drug sensitivity score
DERL-7 (IL-2 2.5 ng/mL) [13]	27.3
IMC-1 (IL-2 20 ng/mL) [4]	24.2
KAI3 (IL-2 2.5 ng/mL) [9]	22.9
KHYG-1 (IL-2 2.5 ng/mL) [6]	28.7
NK-92 (IL-2 2.5 ng/mL) [8]	22.1
NK-YS (IL-2 2.5 ng/mL) [3]	21.9
NKL (IL-2 2.5 ng/mL) [12]	22.5
SNK-6 (IL-2 2.5 ng/mL) [5]	31
YT (IL-2 2.5 ng/mL) [14]	15.1
[1]	24.6
[2]	11
[7]	12
[10]	10
[11]	3.63

percent inhibition of viability [%]
Details	1 nM	10 nM	100 nM	1000 nM	10000 nM
DERL-7 (IL-2 2.5 ng/mL) [27]	-3.49	2.07	76.5	79.7	101
IMC-1 (IL-2 20 ng/mL) [18]	1.14	-0.36	54.2	92.5	102
KAI3 (IL-2 2.5 ng/mL) [23]	2	18.3	49.2	85	103
KHYG-1 (IL-2 2.5 ng/mL) [20]	5.24	7.98	82.5	103	105
NK-92 (IL-2 2.5 ng/mL) [22]	-9.89	2.73	54	76.7	104
NK-YS (IL-2 2.5 ng/mL) [17]	-3.49	7.45	62.7	65.7	102
NKL (IL-2 2.5 ng/mL) [26]	-9.97	18.8	54.1	75	104
SNK-6 (IL-2 2.5 ng/mL) [19]	9.63	33.2	82.6	85.3	98.7
YT (IL-2 2.5 ng/mL) [28]	3.79	9.48	23.2	62.2	103
[15]	-3.83	6.05	58.2	91	101
[16]	4.9	-3.44	17	44.7	98.1
[21]	-12.8	1.36	16.8	50.3	96.5
[24]	-18.1	-9.96	2.88	33.6	97.8
[25]	-11.5	-16.5	-21.3	-42.6	91.9

CC(=O)c1c(C)c2cnc(Nc3ccc(N4CCNCC4)cn3)nc2n(C2CCCC2)c1=O [Palbociclib] (max concentration tested 10000 nM)
Details	drug sensitivity score
DERL-7 (IL-2 2.5 ng/mL) [13]	8.89
IMC-1 (IL-2 20 ng/mL) [4]	6.58
KAI3 (IL-2 2.5 ng/mL) [9]	3.18
KHYG-1 (IL-2 2.5 ng/mL) [6]	16.8
NK-92 (IL-2 2.5 ng/mL) [8]	5.65
NK-YS (IL-2 2.5 ng/mL) [3]	9.09
NKL (IL-2 2.5 ng/mL) [12]	9.37
SNK-6 (IL-2 2.5 ng/mL) [5]	0
YT (IL-2 2.5 ng/mL) [14]	6.16
[1]	7.9
[2]	3.66
[7]	4
[10]	3.41
[11]	2.9

percent inhibition of viability [%]
Details	1 nM	10 nM	100 nM	1000 nM	10000 nM
DERL-7 (IL-2 2.5 ng/mL) [27]	-8.16	4.2	8.47	32.2	90.9
IMC-1 (IL-2 20 ng/mL) [18]	-2.52	-7.06	-2.86	6.43	101
KAI3 (IL-2 2.5 ng/mL) [23]	-3.55	-10.6	-0.36	0.62	57.6
KHYG-1 (IL-2 2.5 ng/mL) [20]	-0.2	2.78	14.7	81.5	91.9
NK-92 (IL-2 2.5 ng/mL) [22]	6.01	-5.34	15.5	12.9	65.7
NK-YS (IL-2 2.5 ng/mL) [17]	2.65	4.48	17.3	37.1	61.5
NKL (IL-2 2.5 ng/mL) [26]	-10.3	-8.16	-14.5	25	104
SNK-6 (IL-2 2.5 ng/mL) [19]	27.7	15.6	28.3	9.56	32.5
YT (IL-2 2.5 ng/mL) [28]	2.18	0.66	6.83	31.3	37
[15]	1.29	2.27	11	16.3	94.1
[16]	-11.6	-7.3	-7.79	-6.34	74.7
[21]	-10.6	-5.61	1.26	2.75	66.1
[24]	-13.2	-11.6	6.3	-3.24	67
[25]	6.42	-17.5	-3.52	-17	68.2
